Results published in patent publication US20260240863A1, “COMBINATION OF ROGINOLISIB AND HDAC INHIBITOR IN THE TREATMENT OF HAEMATOLOGICAL MALIGNANCY” (IONCTURA SA, priority 2023, published 2026).

Tests used:
MEC1 (CLL) cell line = test: MTT antiproliferation combination assay, Chou-Talalay Combination Index, MEC1; format: cell-based; conditions: HDAC inhibitor in combination with Compound 1, 72 hours
Description: (§1) Cell lines from different haematological malignancies were exposed to increasing doses of Compound 1, to increasing doses of HDAC inhibitor, and to increasing doses of the combination of Compound 1 and HDAC inhibitor. Compound 1 and Vorinostat were used at a maximum concentration of 10 μM, following an eight fold dose response design based on 1:3 compound dilutions plus an untreated control. Belinostat was used at a maximum concentration of 10 μM, following an eight fold dose response design based on 1:4 compound dilutions plus an untreated control.
(§2) Cells were incubated for 72 hours at 37° C. and 5% CO2. The antiproliferative effect of single and combination treatments were determined by adding 20 μL MTT [3-(4,5-dimethylthiazolyl-2)-2,5-diphenyltetrazoliumbromide] reagent (Sigma Aldrich, Buchs, Switzerland) to each well and the plates were incubated at 37° C. for 4 hours, followed by adding 50 μL of sodium dodecyl sulfate (SDS) (250 µM SDS, 0.21% fuming HCl) lysis buffer. The lysed cells were kept overnight, and then the absorbance was read at 570 nm using the Cytation 3 instrument (BioTek, Winoosku, VT, USA). The effect of the combinations was determined according to the Chou-Talalay Combination Index (CI) (Chou 2008, Chou 2010) and calculated with the Synergy R package (Lee 2007). […]

Farage (DLBCL) cell line = test: MTT antiproliferation combination assay, Chou-Talalay Combination Index, Farage; format: cell-based; conditions: HDAC inhibitor in combination with Compound 1, 72 hours
Description: as §1, §2

TMD8 (DLBCL) cell line = test: MTT antiproliferation combination assay, Chou-Talalay Combination Index, TMD8; format: cell-based; conditions: HDAC inhibitor in combination with Compound 1, 72 hours
Description: as §1, §2

[1] = test system: A20 (murine B-cell lymphoma) cell line; test: MTT antiproliferation combination assay, Chou-Talalay Combination Index, A20; format: cell-based; conditions: HDAC inhibitor in combination with Compound 1, 72 hours
Description: as §1, §2

JVM2 (MCL) cell line = test: MTT antiproliferation combination assay, Chou-Talalay Combination Index, JVM2; format: cell-based; conditions: HDAC inhibitor in combination with Compound 1, 72 hours
Description: as §1, §2

DNMT = conditions: more than that of azacytidine; cited from earlier work
[2] = clinical use of Vorinostat; cited from earlier work

SMILES	Cl value (median) (MEC1 (CLL) cell line)	Cl value (median) (Farage (DLBCL) cell line)	Cl value (median) (TMD8 (DLBCL) cell line)	Cl value (median) [1]	Cl value (median) (JVM2 (MCL) cell line)	inhibitory activity of DNMT relative to azacytidine (DNMT)	pulmonary embolism (thromboembolic, most common life-threatening event) [2]
O=C(/C=C/c1cccc(S(=O)(=O)Nc2ccccc2)c1)NO [Belinostat, (2E)-N-Hydroxy-3-[3-(phenylsulfamoyl)phenyl]prop-2-enamide]	0.45	0.51	0.87	0.87	0.62		
Nc1ncn([C@H]2C[C@H](O)[C@@H](CO)O2)c(=O)n1 [Decitabine, 5-aza-2′-deoxycytidine]						30 times	
O=C(CCCCCCC(=O)Nc1ccccc1)NO [Vorinostat, N-Hydroxy-N′-phenyloctanediamide]	0.83	0.69			0.71		4%
